# In patent publication US20240114903A1, “SYNERGISTIC MIXTURES COMPRISING PYRETHRUM FOR ARTHROPOD TOXICITY AND REPELLENCY” (University of Florida Research Foundation, Incorporated, priority 2021, published 2024):
# Structures can show the parent of a compound that is named as a salt. Where two headings read alike, the source gives them in different places.
# What was measured:
# [1] = test system: female Aedes aegypti mosquitoes; format: in vivo; conditions: screened individually at the sublethal concentrations used in the mixtures (TCA 10, TFA 50 μg/cm^2)
# [2] = test system: Orlando strain Aedes aegypti females; conditions: essential oil or PBO alone, topical
# Procedure: Plant essential oils were obtained from Berje, Inc. (Carteret, NJ, USA). […] Sucrose for sugar water was obtained from Domino (Baltimore, MD, USA).
# Pupae were provided by the USDA prior to experiments.
# J. Med. Entomol. […] Topical applications were performed by anesthetizing adult female mosquitoes on ice for 5 min, and then placing them on a cold, glass Petri dish to prevent reanimation. A Whatman No. 2 filter paper was used to prevent mosquitoes from coming in contact with excess condensation. A 0.2 μL volume of each treatment was applied to the pronotum of each mosquito using a Hamilton (Reno, NV, USA) repeating applicator with a gastight Hamilton syringe and placed in 470 mL deli paper cups. […] Ten mosquitoes were treated for each concentration representing one replicate, and at least three different cohorts of mosquitoes were used for each concentration in an effort to control for biological variability in the mosquitoes produced by the Orlando colony. A cohort was defined as a distinct rearing group (i.e., adult mosquitoes obtained from distinct batches of eggs placed in water to initiate development each week). Controls were performed using the vehicle, ethanol. Tulle fabric, fastened to the cup with a deli cup lid rim (center removed), was used to keep mosquitoes from escaping. Deli cups containing ten treated mosquitoes per concentration per replicate were placed in an incubator for the remainder of the experimental interval and kept at the same temperature and light cycle as during rearing. Knockdown, defined as the inability to fly or maintain normal standing posture, was recorded at 1 h, and mortality was recorded at 24 h. Mortality was defined as no movement, even after gently tapping the cup several times to assess response.
# VI. Potentiation and antagonism of organophosphorus and carbamate insecticides. Econ. Entomol. […] To compare effects at discrete doses to one another or between those and control, an ANOVA (α=0.05) with a Tukey's post-test was used with an α value of 0.05.
SMILES,toxicity by themselves [1],"1 h % Knockdown ± SE, Synergist ([2]; 2 μg/insect)","24 h % Mortality ± SE, Synergist ([2]; 2 μg/insect)","1 h % Knockdown ± SE, Synergist ([2]; 10 μg/insect)","24 h % Mortality ± SE, Synergist ([2]; 10 μg/insect, listed as Piperonyl butoxide (PBO))"
"CC1(C)[C@H](C=C(Cl)Cl)[C@H]1C(=O)O [TFA, (1R,3S)-3-(2,2-dichloroethenyl)-2,2-dimethylcyclopropanecarboxylic acid]",no toxicity,–,–,–,–
"CCCCOCCOCCOCc1cc2c(cc1CCC)OCO2 [PBO, Piperonyl butoxide]",–,6.7 ± 3.7%,6.7 ± 2.4%,21.7 ± 4 %,statistically significant
"CC(C)=CC1C(C(=O)O)C1(C)C (stereo not drawn) [TCA, 1R-trans-chrysanthemic acid]",no toxicity,–,–,–,–
